In ChEMBL document CHEMBL2440076, “New triarylpyrazoles as broad-spectrum anticancer agents: design, synthesis, and biological evaluation” (Eur J Med Chem, 2013):

Legend:
[1] = system: PC-3; assay: Growth inhibition of human PC3 cells assessed as cell growth at 10 uM after 48 hrs by sulforhodamine B assay; type: functional; conditions: PC-3, 48 h, read-out: Activity
[2] = system: SW-620; assay: Growth inhibition of human SW620 cells after 48 hrs by sulforhodamine B assay; type: functional; conditions: SW-620, 48 h
[3] = system: HT-29; assay: Growth inhibition of human HT-29 cells after 48 hrs by sulforhodamine B assay; type: functional; conditions: HT-29, 48 h
[4] = Growth inhibition of human HCC2998 cells after 48 hrs by sulforhodamine B assay; type: functional; conditions: HCC 2998, 48 h
[5] = system: NCI-H460; assay: Growth inhibition of human NCI-H460 cells after 48 hrs by sulforhodamine B assay; type: functional; conditions: NCI-H460, 48 h
[6] = system: NCI-H226; assay: Growth inhibition of human NCI-H226 cells after 48 hrs by sulforhodamine B assay; type: functional; conditions: NCI-H226, 48 h
[7] = system: HOP-92; assay: Growth inhibition of human HOP92 cells after 48 hrs by sulforhodamine B assay; type: functional, cell-based; conditions: HOP-92, 48 h
[8] = system: A549; assay: Growth inhibition of human A549/ATCC cells after 48 hrs by sulforhodamine B assay; type: functional; conditions: A549, 48 h
[9] = system: 786-0; assay: Growth inhibition of human 786-0 cells assessed as cell growth at 10 uM after 48 hrs by sulforhodamine B assay; type: functional; conditions: 786-0, 48 h, read-out: Activity
[10] = system: SK-OV-3; assay: Growth inhibition of human SKOV3 cells assessed as cell growth at 10 uM after 48 hrs by sulforhodamine B assay; type: functional; conditions: SK-OV-3, 48 h, read-out: Activity
[11] = system: UACC-257; assay: Growth inhibition of human UACC257 cells assessed as cell growth at 10 uM after 48 hrs by sulforhodamine B assay; type: functional; conditions: UACC-257, 48 h, read-out: Activity
[12] = system: SK-MEL-28; assay: Growth inhibition of human SK-MEL-28 cells assessed as cell growth at 10 uM after 48 hrs by sulforhodamine B assay; type: functional; conditions: SK-MEL-28, 48 h, read-out: Activity
[13] = system: U-251; assay: Growth inhibition of human U251 cells assessed as cell growth at 10 uM after 48 hrs by sulforhodamine B assay; type: functional; conditions: U-251, 48 h, read-out: Activity
[14] = system: SNB-19; assay: Growth inhibition of human SNB19 cells assessed as cell growth at 10 uM after 48 hrs by sulforhodamine B assay; type: functional; conditions: SNB-19, 48 h, read-out: Activity
[15] = system: HT-29; assay: Growth inhibition of human HT-29 cells assessed as cell growth at 10 uM after 48 hrs by sulforhodamine B assay; type: functional; conditions: HT-29, 48 h, read-out: Activity
[16] = system: HCT-116; assay: Growth inhibition of human HCT116 cells assessed as cell growth at 10 uM after 48 hrs by sulforhodamine B assay; type: functional; conditions: HCT-116, 48 h, read-out: Activity
[17] = system: NCI-H23; assay: Growth inhibition of human NCI-H23 cells assessed as cell growth at 10 uM after 48 hrs by sulforhodamine B assay; type: functional; conditions: NCI-H23, 48 h, read-out: Activity
[18] = system: NCI-H226; assay: Growth inhibition of human NCI-H226 cells assessed as cell growth at 10 uM after 48 hrs by sulforhodamine B assay; type: functional; conditions: NCI-H226, 48 h, read-out: Activity
[19] = system: MDA-MB-468; assay: Growth inhibition of human MDA-MB-468 cells after 48 hrs by sulforhodamine B assay; type: functional, cell-based; conditions: MDA-MB-468, 48 h
[20] = system: T47D; assay: Growth inhibition of human T47D cells after 48 hrs by sulforhodamine B assay; type: functional
[21] = system: MCF7; assay: Growth inhibition of human MCF7 cells after 48 hrs by sulforhodamine B assay; type: functional; conditions: MCF7, 48 h
[22] = system: A498; assay: Growth inhibition of human A498 cells after 48 hrs by sulforhodamine B assay; type: functional, cell-based; conditions: A498, 48 h
[23] = system: ACHN; assay: Growth inhibition of human ACHN cells after 48 hrs by sulforhodamine B assay; type: functional
[24] = Growth inhibition of human NCI-ADR-RES cells after 48 hrs by sulforhodamine B assay; type: functional
[25] = system: OVCAR-3; assay: Growth inhibition of human OVCAR3 cells after 48 hrs by sulforhodamine B assay; type: functional, cell-based; conditions: OVCAR-3, 48 h
[26] = system: IGROV-1; assay: Growth inhibition of human IGROV1 cells after 48 hrs by sulforhodamine B assay; type: functional; conditions: IGROV-1, 48 h
[27] = system: SNB-75; assay: Growth inhibition of human SNB75 cells after 48 hrs by sulforhodamine B assay; type: functional; conditions: SNB-75, 48 h
[28] = system: U-251; assay: Growth inhibition of human U251 cells after 48 hrs by sulforhodamine B assay; type: functional; conditions: U-251, 48 h
[29] = system: SF-539; assay: Growth inhibition of human SF539 cells after 48 hrs by sulforhodamine B assay; type: functional; conditions: SF-539, 48 h
[30] = system: SF-295; assay: Growth inhibition of human SF295 cells after 48 hrs by sulforhodamine B assay; type: functional, cell-based; conditions: SF-295, 48 h
[31] = system: HOP-62; assay: Growth inhibition of human HOP62 cells assessed as cell growth at 10 uM after 48 hrs by sulforhodamine B assay; type: functional; conditions: HOP-62, 48 h, read-out: Activity
[32] = system: A549; assay: Growth inhibition of human A549/ATCC cells assessed as cell growth at 10 uM after 48 hrs by sulforhodamine B assay; type: functional; conditions: A549, 48 h, read-out: Activity
[33] = system: HL-60(TB); assay: Growth inhibition of human HL-60(TB) cells assessed as cell growth at 10 uM after 48 hrs by sulforhodamine B assay; type: functional; conditions: HL-60, 48 h, read-out: Activity
[34] = read-out: LC50 (the source's name)

SMILES: COc1cc(-c2nn(-c3cccc(NC(=O)Nc4ccc(Cl)c(Cl)c4)c3)cc2-c2ccncc2)ccc1Cl
- growth at 10 µM [1]: -17.6%
- GI50 [2]: 1590 nM
- TGI [2]: > 50000 nM
- CC50 [2, 34]: > 50000 nM
- GI50 [3]: 1240 nM
- TGI [3]: 6460 nM
- CC50 [3, 34]: > 50000 nM
- GI50 [4]: 1560 nM
- TGI [4]: 6200 nM
- CC50 [4, 34]: > 50000 nM
- GI50 [5]: 1110 nM
- LC50 [5]: > 50000 nM
- TGI [5]: > 50000 nM
- GI50 [6]: 1350 nM
- TGI [6]: > 50000 nM
- CC50 [6, 34]: > 50000 nM
- GI50 [7]: 151 nM
- IC50 [7]: 150 nM
- LC50 [7]: > 50000 nM
- TGI [7]: 1470 nM
- GI50 [8]: 745 nM
- LC50 (concentration killing 50% of starting cells) [8]: > 50000 nM
- TGI [8]: > 50000 nM
- growth at 10 µM [9]: 15.3%
- growth at 10 µM [10]: 11.8%
- growth at 10 µM [11]: -36.6%
- growth at 10 µM [12]: 4.96%
- growth at 10 µM [13]: -6.02%
- growth at 10 µM [14]: 27.2%
- growth at 10 µM [15]: 1.12%
- growth at 10 µM [16]: 8.67%
- growth at 10 µM [17]: 1.67%
- growth at 10 µM [18]: 9.61%
- GI50 [19]: 567 nM
- IC50 [19]: 570 nM
- TGI [19]: 2270 nM
- CC50 [19, 34]: > 50000 nM
- GI50 [20]: 1420 nM
- TGI [20]: > 50000 nM
- CC50 [20, 34]: > 50000 nM
- GI50 [21]: 945 nM
- LC50 [21]: > 50000 nM
- TGI [21]: > 50000 nM
- GI50 [22]: 1140 nM
- IC50 [22]: 1140 nM
- TGI [22]: 4590 nM
- CC50 [22, 34]: > 50000 nM
- GI50 [23]: 1000 nM
- TGI [23]: > 50000 nM
- CC50 [23, 34]: > 50000 nM
- GI50 [24]: 990 nM
- TGI [24]: 4670 nM
- CC50 [24, 34]: > 50000 nM
- GI50 [25]: 697 nM
- IC50 [25]: 700 nM
- TGI [25]: 2270 nM
- CC50 [25, 34]: > 50000 nM
- GI50 [26]: 1180 nM
- LC50 (concentration killing 50% of cells) [26]: > 50000 nM
- TGI [26]: 3480 nM
- GI50 [27]: 1050 nM
- LC50 (lethal concentration, 50% net cell kill) [27]: > 50000 nM
- TGI [27]: 5170 nM
- GI50 [28]: 820 nM
- LC50 (concentration killing 50% of cells) [28]: > 50000 nM
- TGI [28]: 2470 nM
- GI50 [29]: 965 nM
- LC50 (concentration killing 50% of cells) [29]: > 50000 nM
- TGI [29]: 3080 nM
- GI50 [30]: 691 nM
- IC50 [30]: 690 nM
- TGI [30]: 2530 nM
- CC50 [30, 34]: > 50000 nM
- growth at 10 µM [31]: 10.2%
- growth at 10 µM [32]: -5.88%
- growth at 10 µM [33]: -18.1%
